# Measurements from the supplement of paper PMC10307832.
# Experiments:
# Test in all cases: relative viability (nuclei count vs DMSO), 5 days (fraction); higher = more cells survive
# Ruxolitinib + Lapatinib = compound: N#CC[C@H](C1CCCC1)n1cc(-c2ncnc3[nH]ccc23)cn1 [Ruxolitinib] + CS(=O)(=O)CCNCc1ccc(-c2ccc3ncnc(Nc4ccc(OCc5cccc(F)c5)c(Cl)c4)c3c2)o1 [Lapatinib] (partner 2 µM)
# In short: (§1)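 One day after seeding in 1536-well plates, lung cancer cell lines were dosed by pin tool. Dosing was either single-drug or a fixed anchor-drug dose plus five library-drug doses (not always all listed) in √10 steps. After 5 days, nuclei were stained in one fix-and-stain step and counted on 4× images, and relative viability is the nuclei count of treated wells over that of vehicle wells, given as the median of duplicate plates.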
# Vismodegib + Olaparib = compound: CS(=O)(=O)c1ccc(C(=O)Nc2ccc(Cl)c(-c3ccccn3)c2)c(Cl)c1 [Vismodegib] + O=C(c1cc(Cc2n[nH]c(=O)c3ccccc23)ccc1F)N1CCN(C(=O)C2CC2)CC1 [Olaparib] (partner 8 µM)
# In short: as §1
# Ruxolitinib + Decitabine = compound: N#CC[C@H](C1CCCC1)n1cc(-c2ncnc3[nH]ccc23)cn1 [Ruxolitinib] + Nc1ncn([C@H]2C[C@H](O)[C@@H](CO)O2)c(=O)n1 [Decitabine] (partner 2 µM)
# In short: as §1
# Vismodegib + Luminespib = compound: CS(=O)(=O)c1ccc(C(=O)Nc2ccc(Cl)c(-c3ccccn3)c2)c(Cl)c1 [Vismodegib] + CCNC(=O)c1noc(-c2cc(C(C)C)c(O)cc2O)c1-c1ccc(CN2CCOCC2)cc1 [Luminespib] (partner 0.01 µM)
# In short: as §1
Cell Line,relative viability (Ruxolitinib + Lapatinib; first compound 0.08 µM),relative viability (Ruxolitinib + Lapatinib; first compound 0.253 µM),relative viability (Ruxolitinib + Lapatinib; first compound 0.8 µM),relative viability (Ruxolitinib + Lapatinib; first compound 2.53 µM),relative viability (Ruxolitinib + Lapatinib; first compound 8 µM),relative viability (Vismodegib + Olaparib; first compound 0.08 µM),relative viability (Vismodegib + Olaparib; first compound 0.253 µM),relative viability (Vismodegib + Olaparib; first compound 0.8 µM),relative viability (Vismodegib + Olaparib; first compound 2.53 µM),relative viability (Vismodegib + Olaparib; first compound 8 µM),relative viability (Ruxolitinib + Decitabine; first compound 0.08 µM),relative viability (Ruxolitinib + Decitabine; first compound 0.253 µM),relative viability (Ruxolitinib + Decitabine; first compound 0.8 µM),relative viability (Ruxolitinib + Decitabine; first compound 2.53 µM),relative viability (Ruxolitinib + Decitabine; first compound 8 µM),relative viability (Vismodegib + Luminespib; first compound 0.08 µM),relative viability (Vismodegib + Luminespib; first compound 0.253 µM),relative viability (Vismodegib + Luminespib; first compound 0.8 µM),relative viability (Vismodegib + Luminespib; first compound 2.53 µM),relative viability (Vismodegib + Luminespib; first compound 8 µM)
HCC-78,0.37,0.294,0.441,0.553,0.199,0.676,0.79,0.639,0.755,0.844,0.598,0.607,0.677,0.527,0.661,,,,,
HCC-366,1.11,0.982,1.1,0.937,0.747,0.343,0.364,0.378,0.431,0.372,0.361,0.321,0.318,0.24,0.275,,,,,
HCC-827,,0.196,0.172,0.212,0.225,0.581,0.653,0.728,0.678,0.657,,0.325,0.364,0.253,0.305,0.658,0.762,0.691,0.589,0.733
HOP-62,,1.07,1.16,0.91,0.914,0.403,0.47,0.387,0.396,0.345,0.197,0.258,0.227,0.208,0.19,0.916,0.914,0.981,0.93,0.877
IA-LM,0.903,0.657,1.04,1.01,0.477,0.841,0.853,0.892,0.773,0.941,,,,,,,,,,
LC-2-ad,0.989,0.878,0.868,0.773,0.34,0.681,0.734,0.686,0.658,0.716,0.776,0.936,0.784,0.694,0.604,1.01,0.957,0.975,0.955,1.06
LCLC-97TM1,0.877,0.833,0.852,0.83,1.21,0.355,0.416,0.439,0.298,0.565,0.221,0.242,0.22,0.265,0.222,0.699,0.725,0.746,0.76,0.826
LCLC-103H,,,,,,0.759,0.757,0.73,0.733,0.832,0.83,0.775,0.802,0.656,0.658,1.03,0.968,0.93,0.884,1.07
LK-2,,0.893,1.23,0.997,0.964,0.379,0.574,0.956,0.638,0.604,0.228,0.237,0.35,0.308,0.273,0.175,0.185,0.207,0.151,0.214
LOU-NH91,0.786,0.666,0.844,0.764,0.865,0.873,0.907,0.936,0.904,0.917,0.684,0.813,0.829,0.782,0.798,0.28,0.334,0.352,0.366,0.301
LU99A,1.11,0.954,1.13,0.754,0.675,0.306,0.278,0.292,0.267,0.247,0.918,0.938,0.886,0.639,0.836,0.257,0.233,0.323,0.257,0.305
LXF-289,0.849,0.891,0.861,0.825,0.786,1.05,1.01,1.11,1.02,0.94,0.369,0.426,0.353,0.363,0.371,0.625,0.691,0.764,0.611,0.738
NCI-H441,,,,,,0.561,,0.579,0.55,0.55,0.244,0.238,0.21,0.16,0.26,0.348,0.281,0.284,0.304,0.38
NCI-H522,,,,,,0.786,0.591,0.612,0.567,0.565,0.694,0.695,0.669,0.701,0.654,1.1,1.1,0.939,1.34,1.09
NCI-H1299,0.937,0.963,0.957,0.915,0.718,0.913,0.964,0.967,0.935,0.951,,,,,,,,,,
NCI-H1563,1.07,0.85,0.979,0.903,0.774,,,,,,,,,,,0.468,0.48,0.529,0.545,0.571
NCI-H1623,,,,,,,,,,,,,,,,0.483,0.439,0.611,0.457,0.6
NCI-H1648,,,,,,0.781,0.767,0.46,0.645,0.872,0.472,0.558,0.588,0.592,0.861,,,,,
NCI-H1703,0.999,1.01,1.12,0.738,0.64,0.495,0.42,0.543,0.349,0.44,,,,,,,,,,
NCI-H2228,0.972,1.17,1.22,0.82,0.664,0.596,0.796,0.56,0.502,0.477,,,,,,0.225,0.183,0.182,0.127,0.18
NCI-H2342,,,,,,0.402,0.421,0.418,0.52,0.406,0.706,0.665,0.777,0.783,0.667,0.588,0.728,0.748,0.79,0.71
SW 900,,,,,,0.743,0.866,0.784,,0.803,0.426,0.495,0.475,0.445,0.41,0.183,0.164,0.164,0.19,0.163
